# Measurements from patent US10526580B2, “Differentiated cell population of endothelial cells derived from human pluripotent stem cells, composition, system, kit and uses thereof” (BIOCANT-ASSOCIAÇÃO DE TRANSFERÊNCIA DE TECNOLOGIA, priority 2012, dated 2020).
# How the values were obtained:
# [1] = test system: hESC-derived ECs versus ACL cells; experiment: High-throughput screening of LOPAC library, PrestoBlue cell viability, hESC-derived ECs versus ACL cells; type: cell-based, human; conditions: LOPAC screen, 4.5 μM, 4 days of incubation, PrestoBlue assay
# Experimental: (§1) High-throughput screening (HTS). HUAECS (Lonza) and hESC-derived ECs were cultured in EGM-2 medium while human anterior cruciate ligament cells (ACL cells) were cultured in Dulbecco's modified Eagle's medium (DMEM; PAA) supplemented with 10% FBS, 0.2 mM ascorbic acid 2-phosphate magnesium salt (Sigma Aldrich), […] streptomycin and 100 U/mL penicillin (Life Technologies). ACL cells were isolated from patients that have signed an informed consent form, in compliance with the Dutch legislation. The ethical committee of Medisch Spectrum Twente Hospital approved the collection.
# (§2) The LOPAC library (Sigma-Aldrich) was used to screen embryonic endothelial-specific cytotoxic compounds. The compounds were solubilized in DMSO. The final compound concentration used in the screen was 4.5 μM in a final volume of 200 μL per well (96-well plate). HUAECs, hESC-derived EC and ACL cells were seeded at 16,000 cells/well (HUAECs and hESC-derived ECs) and 5,000 cells/well (ACL cells) and allowed to reach near confluence (approximately two days). After two days, medium was exchanged and test compounds and controls were added to the 96-well plates (all wells contained 0.25% (v/v) DMSO). After 4 days of incubation, cell viability was assessed using a PrestoBlue (Invitrogen) assay. This assay is based on a resazurin-based solution that indicates the reducing power of living cells and therefore measures indirectly their number. For each measurement, cell medium was removed and the PrestoBlue solution (10%) was added for 3 h at 37° C. upon which the absorbance was measured at 560-590 nm.
# (§3) Disruption of vascular development has been directly correlated with prenatal loss, malformations and neurodevelopmental problems^41-44. […] The library was screened at a single dosage of 4.5 μM in a volume of 200 μL per well of EGM-2 medium, containing 0.25% DMSO (v/v). […] Six compounds (danazol, chlorpromazine hydrochloride, ellipticine, 3′,4′-dichlorobenzamil, fluphenazine dihydrochloride and 7-cyclopentyl-5-(4-phenoxy)phenyl-7H-pyrrolo[2,3-d]pyrimidin-4-ylamine) affected cell viability in both cells by a difference of 20% (FIG. 4B). The six compounds belong to different classes: cell cycle, ion pumps, dopamine pathway, phosphorylation and hormone signaling. The compounds selected from the primary screen were then tested against hESC-derived ECs and HUAECs at eight different concentrations to obtain a dose-response curve (FIG. 4C and FIG. 14).
# [2] = test system: HUVECs and lymphatic EC tube formation; conditions: 1 μM, in vitro; cited from earlier work
# HUAECs = experiment: 7-Cyclo in PDMS microfluidic system, static or flow (qRT-PCR, ELISA); type: cell-based, human; conditions: flow 20 dyne/cm2, 1 μM for 24 h
# Experimental: For the 7-cyclo studies the flow experiments were carried out in a microfluidic system developed by us. The microfluidic device was obtained using a cylindrical mold of 20 Gauge. Polydimethylsiloxane (PDMS) (Sylgard 184 Silicone elastomere base) was mixed at a 10:1 ratio (w/w) with curing agent (Sylgard 184 Silicon Elastomer Curing Agent) and the solution was poured onto a mold (20 gauge needle laid on a plastic dish) and cured at 80° C. for about 3 h. The microchannel was cut to 0.5 cm length (900 μm inner diameter) and treated with Plasma Clean (Electronic Diener Femto Plasma Surface Technology version 5) for 2 min with argon gas (2 mBar) before immersing it in a solution of 0.1% gelatin. […]
# Evaluation of the levels of vascular injury by specific markers. ELISA kits analyzed supernatants collected from the shear stress experiments for vWF and vWFpp (Gen-Probe GTI Diagnostic) and ADMA (Enzo Life Sciences), according to manufacturer's recommendations.
# To evaluate the effects of 7-Cyclo in flow conditions, hESC-derived ECs were cultured in a poly(dimethylsiloxane) (PDMS) microfluidic system with cylindrical channels for 7 days at 20 dyne/cm2 (FIG. 5A). […] At day 7, cells were exposed to EGM-2 medium supplemented with 1 μM of 7-Cyclo for 24 h, and finally analyzed at morphological, genetic and secretion levels. […]
# [3] = test system: kinase activity of hESC-derived ECs; experiment: Kinase-Glo Luminescence Kinase Assay of cells; type: cell-based, human; conditions: 24 h incubation, 0.1 or 1 μM
# Experimental: (§4) The kinase activity of the hESC-derived ECs and HUAECs was assessed by luminescence (signal is inversely correlated with the level of kinase activity) in the absence or presence of the compound 7-Cyclo (FIG. 6D).
# (§5) The kinase activity of cells was measured by a Kinase-Glo® Luminescence Kinase Assay (Promega). Cells incubated with 7-Cyclo for 24 h were treated with the kinase reagent from the kit and luminescence acquired using a Spectra Max Gemini luminometer. The luminescence signal is correlated with the amount of ATP present and its inversely correlated with the amount of kinase activity.
# [4] = test system: kinase activity of HUAECs; experiment: Kinase-Glo Luminescence Kinase Assay of cells; type: cell-based, human; conditions: 24 h incubation, 0.1 or 1 μM
# Experimental: as §4, §5
# [5] = test system: hESC-derived ECs versus HUAECs; experiment: High-throughput screening of LOPAC library, PrestoBlue cell viability, hESC-derived ECs versus HUAECs; type: cell-based, human; conditions: LOPAC screen, 4.5 μM, 4 days, PrestoBlue assay
# Experimental: as §1, §2, §3
structure (smiles),measurement,setting,value
"Nc1ncnc2c1c(-c1ccc(Oc3ccccc3)cc1)cn2C1CCCC1 [7-Cyclo, 7-cyclopentyl-5-(4-phenoxy)phenyl-7H-pyrrolo[2,3-d]pyrimidin-4-ylamine]",Differences (%) in cell viability (hESC-Derived ECs versus ACL cells),[1],65.4%
same,tube formation,[2],inhibits
same,down-regulation of DDAH-1 and DDAH-2,HUAECs,No down-regulation
same,expression of inflammatory genes,HUAECs,only ICAM-1 and eNOS genes were up-regulated
same,kinase activity versus time zero (luminescence),[3],decreased significantly
same,kinase activity versus time zero (luminescence),[4],no significant decrease
same,difference in cell viability between hESC-derived ECs and HUAECs,[5],20%
